The text below walks through data of the Kinase Knowledgebase extract (Sharma et al. 2016).

Assay [1] has as its target MAPK14 (UniProt Q16539). Put plainly: CSBP Kinase Inhibition.
The target of assay [2] is MAPK14 (UniProt Q16539). Nature of the assay: CSBP Binding Inhibition.

A word on the IC50: it is the concentration needed to halve the response being measured. Read a low IC50 as higher potency.

Chain of MAPK14 (Q16539 whole entry, looked up): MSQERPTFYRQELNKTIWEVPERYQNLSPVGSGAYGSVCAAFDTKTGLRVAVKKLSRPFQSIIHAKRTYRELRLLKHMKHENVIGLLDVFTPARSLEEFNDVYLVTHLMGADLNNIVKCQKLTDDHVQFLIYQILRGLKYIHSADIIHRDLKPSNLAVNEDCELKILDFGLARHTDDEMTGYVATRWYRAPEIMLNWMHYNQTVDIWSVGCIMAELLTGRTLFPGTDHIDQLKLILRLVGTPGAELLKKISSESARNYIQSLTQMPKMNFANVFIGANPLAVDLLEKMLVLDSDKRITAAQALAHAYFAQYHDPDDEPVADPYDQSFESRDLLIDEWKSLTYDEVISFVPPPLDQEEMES

Regarding `Oc1nccc(-c2c(-c3ccc(F)cc3)ncn2C2CCC(O)CC2)n1` (stereo not given), at MAPK14 [1], the IC50 is less than 50 µM. On the same count and under the same terms, for `CCCC(=O)O[C@H]1CC[C@H](n2cnc(-c3ccc(F)cc3)c2-c2ccnc(OC)n2)CC1` the value was less than 50 µM. As for `CC(C)Oc1nccc(-c2c(-c3ccc(F)cc3)ncn2C2CCC(=O)CC2)n1`, the 50% inhibitory concentration (IC50) on MAPK14 [2] was less than 50 µM. The same measure, in the same setting: for `CSc1nccc(-c2c(-c3ccc(F)cc3)ncn2[C@H]2CC[C@H](O)CC2)n1` the value was less than 50 µM.

Compound `O=C1CCC(n2cnc(-c3ccc(F)cc3)c2-c2ccnc(O)n2)CC1` showed an IC50 at MAPK14 [2] of less than 50 µM. On to `COc1nccc(-c2c(-c3ccc(F)cc3)ncn2[C@H]2CC[C@@](C)(O)CC2)n1`, for which, on MAPK14 [1], the concentration for half-maximal inhibition (IC50) is less than 50 µM. On to `CSc1nccc(-c2c(-c3ccc(F)cc3)ncn2C2CCC(=O)CC2)n1`, for which the IC50 on MAPK14 [2] is less than 50 µM. On to `COc1nccc(-c2c(-c3ccc(F)cc3)ncn2[C@H]2CC[C@H](OC3CCCCO3)CC2)n1` (stereo not given in full), for which the IC50 against MAPK14 [1] is less than 50 µM. The same measure, in the same setting: for `COc1nccc(-c2c(-c3ccc(F)cc3)ncn2[C@H]2CC[C@@H](N)CC2)n1` the value was less than 50 µM; for `COc1nccc(-c2c(-c3ccc(F)cc3)ncn2[C@H]2CC[C@@](O)(CO)CC2)n1.COc1nccc(-c2c(-c3ccc(F)cc3)ncn2[C@H]2CC[C@](O)(CO)CC2)n1`, less than 50 µM. `COc1nccc(-c2c(-c3ccc(F)cc3)ncn2C2CCC(=O)CC2)n1` gave an IC50 at MAPK14 [2] of less than 50 µM. Turning to `CC(C)Oc1nccc(-c2c(-c3ccc(F)cc3)ncn2C2CCC(O)CC2)n1` (stereo not given), on MAPK14 [2], the IC50 is less than 50 µM. Turning to `COc1nccc(-c2c(-c3ccc(F)cc3)ncn2[C@H]2CC[C@](C)(O)CC2)n1`, on MAPK14 [1], the IC50 was less than 50 µM. The same measure, in the same setting: for `COc1nccc(-c2c(-c3ccc(F)cc3)ncn2[C@H]2CC[C@H](N)CC2)n1` the value was less than 50 µM. On to `COc1nccc(-c2c(-c3ccc(F)cc3)ncn2[C@H]2CC[C@@](C)(O)CC2)n1.COc1nccc(-c2c(-c3ccc(F)cc3)ncn2[C@H]2CC[C@](C)(O)CC2)n1`, for which, on MAPK14 [2], the IC50 is less than 50 µM.
